According to patent publication US20230142338A1, “THIOPHENYL DERIVATIVES USEFUL FOR MODULATING NUCLEIC ACID SPLICING” (REMIX THERAPEUTICS INC., priority 2020, published 2023):

Columns and labels:
Type in all cases: cell-based
Target C CJ mRNA = assay: Gene panel canonical junction qPCR assay: Target C; conditions: Table 3, concentration having 50% response in CJ decrease, read-out: Target C IC50 (decrease in CJ mRNA levels)
Method in brief: (§1)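 A673 or K562 cells were treated 24 h at 37 °C with an 11-point 3-fold dilution series (top 10 uM; ≤0.25% DMSO). Canonical-junction mRNA was then measured in lysates by one-step RT-qPCR. Values were normalized to a housekeeping gene (GAPDH, GUSB or PPIA) and to the DMSO control via 2^(−ΔΔCt).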

HTT CJ mRNA [1] = assay: Gene panel canonical junction qPCR assay: HTT; conditions: Table 3, concentration having 50% response in CJ decrease, read-out: HTT IC50 (decrease in CJ mRNA levels)
Method in brief: as §1

SMN2 CJ mRNA = assay: Gene panel canonical junction qPCR assay: SMN2; conditions: Table 3, concentration having 50% response in CJ decrease, read-out: SMN2 IC50 (decrease in CJ mRNA levels)
Method in brief: as §1

HTT CJ mRNA [2] = assay: Splicing assay (RT-qPCR): decrease in HTT canonical junction (CJ) mRNA; conditions: A673 or K562 cells, 24 hours treatment; concentration having 50% response in CJ mRNA decrease
Method in brief: (§2)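 A673 (DMEM/10% FBS) or K562 (IMDM/10% FBS) cells treated 24 h at 37 °C with 11-point 3-fold dilutions, top final 10 uM, DMSO ≤0.25%. Lysates taken directly to RT-qPCR for HTT CJ and AJ isoforms, normalized to GAPDH, GUSB or PPIA. ΔΔCt vs DMSO control converted to RQ (2^−ΔΔCt), then percentage response.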

HTT AJ mRNA = assay: Splicing assay (RT-qPCR): increase in HTT alternative junction (AJ) mRNA; conditions: A673 or K562 cells, 24 hours treatment; concentration having 50% response in AJ mRNA increase
Method in brief: as §2

Row | SMILES | IC50 (Target C CJ mRNA) | IC50 (HTT CJ mRNA [1]) | IC50 (SMN2 CJ mRNA) | AC50 (HTT CJ mRNA [2]) | AC50 (HTT AJ mRNA)
1 | Cc1cn2cc(NC(=O)c3cc(F)c(C4CCNCC4)s3)cc(F)c2n1 [Compound 188, 4-fluoro-N-[8-fluoro-2-methylimidazo[1,2-a]pyridin-6-yl]-5-(piperidin-4-yl)thiophene-2-carboxamide] | > 10 nM | 100 to 1000 nM | 100 to 1000 nM | 100 to 1000 nM | > 10000 nM
2 | COc1cc(N2CCNCC2=O)sc1C(=O)Nc1cc(F)c2nc(C)cn2c1 [Compound 189, N-[8-fluoro-2-methylimidazo[1,2-a]pyridin-6-yl]-3-methoxy-5-(2-oxopiperazin-1-yl)thiophene-2-carboxamide] | > 10 nM | > 10 nM | > 10 nM | > 10000 nM | > 10000 nM
3 | Cc1cn2cc(NC(=O)c3sc(C4CCNCC4)cc3Cl)cc(F)c2n1 [Compound 190, 3-chloro-N-[8-fluoro-2-methylimidazo[1,2-a]pyridin-6-yl]-5-(piperidin-4-yl) thiophene-2-carboxamide] | 1000 to 10000 nM | < 100 nM | < 100 nM | < 100 nM | 100 to 1000 nM
4 | Cc1cn2nc(NC(=O)c3sc(C4CCNCC4)cc3F)cc2c(C)n1 [Compound 191, N-[4,6-dimethylpyrazolo[1,5-a]pyrazin-2-yl]-3-fluoro-5-(piperidin-4-yl)thiophene-2-carboxamide] | 1000 to 10000 nM | 1000 to 10000 nM | 100 to 1000 nM | 1000 to 10000 nM | 1000 to 10000 nM

More lines, main results first:

Row | IC50 (Target C CJ mRNA) | IC50 (HTT CJ mRNA [1]) | IC50 (SMN2 CJ mRNA) | SMILES | AC50 (HTT CJ mRNA [2]) | AC50 (HTT AJ mRNA)
5 | > 10 nM | > 10 nM | > 10 nM | Cc1cn2nc(NC(=O)c3sc(C4CCNCC4)cc3F)nc2c(C)n1 [Compound 192, N-[6,8-dimethyl-[1,2,4]triazolo[1,5-a]pyrazin-2-yl]-3-fluoro-5-(piperidin-4-yl)thiophene-2-carboxamide] | > 10000 nM | > 10000 nM
6 | > 10 nM | > 10 nM | 1000 to 10000 nM | Cc1cn2cc(NC(=O)c3cc(Cl)c(C4CCNCC4)s3)cc(F)c2n1 [Compound 193, 4-chloro-N-[8-fluoro-2-methylimidazo[1,2-a]pyridin-6-yl]-5-(piperidin-4-yl) thiophene-2-carboxamide] | > 10000 nM | > 10000 nM
7 | > 10 nM | 100 to 1000 nM | < 100 nM | Cc1cn2cc(NC(=O)c3sc(C4CCNCC4)cc3F)nc2c(C)n1 [Compound 195, N-[6,8-dimethylimidazo[1,2-a]pyrazin-2-yl]-3-fluoro-5-(piperidin-4-yl)thiophene-2-carboxamide] | 100 to 1000 nM | 1000 to 10000 nM
8 | > 10 nM | 1000 to 10000 nM | 100 to 1000 nM | Cc1cn2cc(NC(=O)c3sc([C@@H]4CCN[C@H](C)C4)cc3F)cc(C(F)(F)F)c2n1 [Compound 196, 3-fluoro-N-[2-methyl-8-(trifluoromethyl)imidazo[1,2-a]pyridin-6-yl]-5-[(cis-)-2-methylpiperidin-4-yl]thiophene-2-carboxamide] | 1000 to 10000 nM | > 10000 nM
9 | > 10 nM | 1000 to 10000 nM | 100 to 1000 nM | Cc1cn2cc(NC(=O)c3sc([C@H]4CCN[C@H](C)C4)cc3F)cc(C(F)(F)F)c2n1 [Compound 197, 3-fluoro-N-[2-methyl-8-(trifluoromethyl)imidazo[1,2-a]pyridin-6-yl]-5-[(trans-)-2-methylpiperidin-4-yl]thiophene-2-carboxamide] | 1000 to 10000 nM | 1000 to 10000 nM
